# Test results: patent publication US11230535B2, “CFTR regulators and methods of use thereof” (THE REGENTS OF THE UNIVERSITY OF CALIFORNIA, priority 2015, dated 2022)
# Test system: mouse colon
# Test: Short-circuit current in freshly harvested mouse colon
# Conditions: freshly isolated mouse colon; read-out: EC50, increase in short-circuit current (Cl− secretion)
# Method: Short-circuit current was measured in FRT cells stably expressing wild-type human CFTR cultured on porous filters as described. The basolateral solution contained 130 mM NaCl, 2.7 mM KCl, 1.5 mM KH2PO4, 1 mM CaCl2, 0.5 mM MgCl2, 10 mM glucose, and 10 mM Na-HEPES (pH 7.3, 37° C.). In the apical solution 65 mM NaCl was replaced by Na gluconate, and CaCl2 was increased to 2 mM, and the basolateral membrane was permeabilized with 250 μg/ml amphotericin B. Short-circuit current was measured in freshly harvested adult mouse colon at 37° C. using symmetrical Krebs-bicarbonate buffer.
# Short-circuit current measurement. Short-circuit current was measured in FRT cells stably expressing wild-type human CFTR cultured on porous filters as described. The basolateral solution contained 130 mM NaCl, 2.7 mM KCl, 1.5 mM KH2PO4, 1 mM CaCl2, 0.5 mM MgCl2, 10 mM glucose, and 10 mM Na-HEPES (pH 7.3, 37° C.). In the apical solution 65 mM NaCl was replaced by Na gluconate, and CaCl2 was increased to 2 mM, and the basolateral membrane was permeabilized with 250 μg/ml amphotericin B. Short-circuit current was measured in freshly harvested adult mouse colon at 37° C. using symmetrical Krebs-bicarbonate buffer.
structure (smiles),measurement,value
"Nc1ccc([N+](=O)[O-])cc1-c1nc2ccccc2n(Cc2ccccc2)c1=O [CFTRact-J027, 3-(2-amino-5-nitrophenyl)-1-benzylquinoxalin-2(1H)-one]",EC50,~0.3 µM
